Read-outs that look alike come from different tables or passages of the source.
Assays:
[1] = target: T1, recombinant human serotonin transporter (Homo sapiens, UniProt P31645); experiment: Serotonin functional uptake assay for human reuptake transporter; assay type: cell-based; details: [3H]serotonin uptake, HEK-293 cells expressing human serotonin transporter; read-out: Human IC50 (nM) SERT
T1 construct: expressed in transfected cells; host or cells: HEK-293
Procedure: Serotonin Functional Uptake Assay for Human Reuptake Transporter
HEK-293 cells expressing human serotonin transporter were plated before the assay. […] Cells with internalized [^3H]serotonin were washed and the amount of tritium taken into cells is counted using a liquid scintillation counter to determine [^3H]serotonin uptake.

[2] = target: T2, recombinant human norepinephrine transporter (Homo sapiens, UniProt P23975); experiment: Norepinephrine functional uptake assay for human reuptake transporter; assay type: cell-based; details: [3H]norepinephrine uptake, HEK293 or MDCK cells expressing human norepinephrine transporter
T2 construct: expressed in transfected cells; host or cells: HEK293 or MDCK
T2 sequence (P23975 whole entry): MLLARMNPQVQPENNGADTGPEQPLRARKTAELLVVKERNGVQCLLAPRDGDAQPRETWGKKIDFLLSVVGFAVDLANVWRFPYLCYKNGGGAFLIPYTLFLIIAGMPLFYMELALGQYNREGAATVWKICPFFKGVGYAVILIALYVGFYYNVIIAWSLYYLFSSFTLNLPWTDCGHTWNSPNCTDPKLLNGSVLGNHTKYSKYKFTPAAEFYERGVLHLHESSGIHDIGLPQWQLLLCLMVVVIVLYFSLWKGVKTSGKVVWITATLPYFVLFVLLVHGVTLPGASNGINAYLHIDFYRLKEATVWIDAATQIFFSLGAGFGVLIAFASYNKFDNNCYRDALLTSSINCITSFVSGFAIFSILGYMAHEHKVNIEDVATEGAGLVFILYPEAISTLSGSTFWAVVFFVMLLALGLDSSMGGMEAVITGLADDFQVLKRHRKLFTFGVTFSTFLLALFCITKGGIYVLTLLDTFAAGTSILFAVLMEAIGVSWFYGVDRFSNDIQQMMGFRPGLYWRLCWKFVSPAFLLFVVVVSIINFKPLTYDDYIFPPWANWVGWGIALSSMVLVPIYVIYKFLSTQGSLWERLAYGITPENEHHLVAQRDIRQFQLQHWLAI
Procedure: Norepinephrine Functional Uptake Assay for Human Reuptake Transporter
The cells were plated before the assay. Test compound and/or vehicle was preincubated with cells in modified HEPES buffer pH 7.1 or pH 7.4 for 20 minutes at 18 to 25° C. . […] After the cells were washed to remove [^3H]norepinephrine not internalized, the cells were lysed, and the amount of tritium in the cell lysate was measured using a liquid scintillation counter to determine [^3H]norepinephrine uptake. Non-specific binding of tritium was measured in a control reaction containing 10 μM imipramine (or 10 μM nisoxetine), and was subtracted from the counts for assays to correct for non-specific binding of tritium. Reduction of [^3H]norepinephrine uptake by 50 percent or more (≧50%) relative to an uninhibited control reaction indicates significant inhibitory activity.

[3] = target: T3, recombinant human dopamine transporter (Homo sapiens, UniProt Q01959); experiment: Dopamine functional uptake assay for human reuptake transporter; assay type: cell-based; details: [3H]dopamine uptake, CHO-K1 or HEK293 cells expressing human dopamine transporter; read-out: Human IC50 (nM) DAT
T3 construct: expressed in transfected cells; host or cells: CHO-K1 or HEK293
T3 sequence (Q01959 whole entry): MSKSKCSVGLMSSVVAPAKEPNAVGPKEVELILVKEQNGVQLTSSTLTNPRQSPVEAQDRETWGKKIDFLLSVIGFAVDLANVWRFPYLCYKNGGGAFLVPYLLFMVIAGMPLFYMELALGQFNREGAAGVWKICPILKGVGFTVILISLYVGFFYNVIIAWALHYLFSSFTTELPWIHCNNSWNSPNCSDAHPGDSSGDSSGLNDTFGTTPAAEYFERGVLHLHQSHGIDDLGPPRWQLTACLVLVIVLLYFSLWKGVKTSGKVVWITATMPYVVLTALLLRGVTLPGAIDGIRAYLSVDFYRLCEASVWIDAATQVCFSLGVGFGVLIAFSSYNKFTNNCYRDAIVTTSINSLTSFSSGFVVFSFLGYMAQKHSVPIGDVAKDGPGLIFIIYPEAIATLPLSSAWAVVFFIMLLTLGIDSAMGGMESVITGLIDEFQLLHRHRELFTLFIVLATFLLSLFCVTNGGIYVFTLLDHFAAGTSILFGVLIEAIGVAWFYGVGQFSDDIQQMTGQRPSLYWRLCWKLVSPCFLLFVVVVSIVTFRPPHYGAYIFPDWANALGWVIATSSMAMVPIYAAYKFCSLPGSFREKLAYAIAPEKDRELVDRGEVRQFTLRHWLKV
Procedure: Dopamine Functional Uptake Assay for Human Reuptake Transporter
Either CHO-K1 or HEK293 cells expressing human recombinant dopamine transporter were plated before the assay. Test compound and/or vehicle was preincubated with cells in modified HEPES buffer pH 7.1 or pH 7.4 for 20 minutes at 18 to 25° C. and 50 nM [^3H]dopamine was then added for an additional timed incubation period (10 to 30 minutes). After washing the cells to remove [^3H]dopamine not internalized, the cells were lysed, and the amount of tritium in the lysate was measured using a liquid scintillation counter to determine [^3H]dopamine uptake. Non-specific binding of tritium was measured in a control reaction containing 10 μM nomifensine, and was subtracted from the counts for assays to correct for non-specific binding of tritium. Reduction of [^3H]dopamine uptake by 50 percent or more (≧50%) relative to an uninhibited control reaction indicates significant inhibitory activity.

[4] = in vivo; cited from earlier work
[5] = target: serotonin uptake sites (Homo sapiens, UniProt P31645); details: versus racemic 1-(3,4-dichlorophenyl)-3-azabicyclo[3.1.0]hexane; cited from earlier work
Chain of serotonin uptake sites (P31645 whole entry): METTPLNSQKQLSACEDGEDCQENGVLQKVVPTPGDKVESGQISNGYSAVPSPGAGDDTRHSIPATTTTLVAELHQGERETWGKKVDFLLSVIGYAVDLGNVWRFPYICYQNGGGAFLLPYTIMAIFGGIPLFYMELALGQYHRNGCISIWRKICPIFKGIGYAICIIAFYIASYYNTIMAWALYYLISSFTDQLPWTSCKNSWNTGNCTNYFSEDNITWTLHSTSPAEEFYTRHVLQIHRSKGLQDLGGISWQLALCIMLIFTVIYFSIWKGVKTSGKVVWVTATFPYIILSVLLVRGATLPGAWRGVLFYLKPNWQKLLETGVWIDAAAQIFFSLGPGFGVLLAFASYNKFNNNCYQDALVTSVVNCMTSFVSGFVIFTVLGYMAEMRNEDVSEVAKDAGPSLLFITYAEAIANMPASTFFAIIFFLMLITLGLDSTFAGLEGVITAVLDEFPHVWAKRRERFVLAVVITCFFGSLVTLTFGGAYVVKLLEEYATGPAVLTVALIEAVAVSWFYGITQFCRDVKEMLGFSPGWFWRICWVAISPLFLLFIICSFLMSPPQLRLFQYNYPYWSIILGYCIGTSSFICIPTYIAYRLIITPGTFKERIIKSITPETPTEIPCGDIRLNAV

T1 sequence (P31645 whole entry): as above

Compound | IC50 [1] | IC50 ([2]; read-out: Human IC50 (nM) NET) | IC50 [3] | IC50 ([2]; Human IC50 (nM) NET) | immobility in the tail suspension test [4] | affinity for the serotonin uptake sites compared with the racemic compound [5]
COc1ccc2c(c1)C[C@H](N(C)C)C[C@@H]2c1ccc(Cl)c(Cl)c1 (single isomer, unassigned) [Compound 33c.4, 4-(3,4-dichlorophenyl)-7-methoxy-N,N-dimethyl-1,2,3,4-tetrahydronaphthalen-2-amine] | 92 nM | 1900 nM | 224 nM | – | – | –
CN(C)[C@H]1CCc2ccccc2[C@H]1c1ccc(Cl)c(Cl)c1 (single isomer, unassigned) [Compound 37a, 1-(3,4-dichlorophenyl)-N,N-dimethyl-1,2,3,4-tetrahydronaphthalen-2-amine] | 355 nM | 2380 nM | 235 nM | – | – | –
CN(C)[C@H]1CCc2ccccc2[C@H]1c1ccc(Cl)c(Cl)c1 (single isomer, unassigned) [Compound 37b, 1-(3,4-dichlorophenyl)-N,N-dimethyl-1,2,3,4-tetrahydronaphthalen-2-amine] | 742 nM | 499 nM | 106 nM | – | – | –
CN(C)[C@H]1CCc2ccccc2[C@H]1c1ccc(Cl)c(Cl)c1 (single isomer, unassigned) [Compound 37c, 1-(3,4-dichlorophenyl)-N,N-dimethyl-1,2,3,4-tetrahydronaphthalen-2-amine] | 70 nM | 1190 nM | 284 nM | – | – | –
CN(C)[C@H]1CCc2ccccc2[C@H]1c1ccc(Cl)c(Cl)c1 (single isomer, unassigned) [Compound 37d, 1-(3,4-dichlorophenyl)-N,N-dimethyl-1,2,3,4-tetrahydronaphthalen-2-amine] | 3150 nM | 1010 nM | 36 nM | – | – | –
CNC1c2ccccc2CCC1c1ccc(Cl)c(Cl)c1 (single isomer, unassigned) [Compound 40a, 2-(3,4-dichlorophenyl)-N-methyl-1,2,3,4-tetrahydronaphthalen-l-amine] | 2470 nM | > 10000 nM | 3410 nM | – | – | –
CNC1c2ccccc2CCC1c1ccc(Cl)c(Cl)c1 (single isomer, unassigned) [Compound 40b, 2-(3,4-dichlorophenyl)-N-methyl-1,2,3,4-tetrahydronaphthalen-l-amine] | 7720 nM | > 10000 nM | 1790 nM | – | – | –
CN(C)[C@@H]1c2ccccc2CC[C@@H]1c1ccc(Cl)c(Cl)c1 (single isomer, unassigned) [Compound 41a, cis-2-(3,4-dichlorophenyl)-N,N-dimethyl-1,2,3,4-tetrahydronaphthalen-1-amine] | 3170 nM | > 10000 nM | 2280 nM | – | – | –
CN(C)[C@@H]1c2ccccc2CC[C@@H]1c1ccc(Cl)c(Cl)c1 (single isomer, unassigned) [Compound 41b, cis-2-(3,4-dichlorophenyl)-N,N-dimethyl-1,2,3,4-tetrahydronaphthalen-1-amine] | 9740 nM | > 10000 nM | 1120 nM | – | – | –
CC(N)C1=Cc2ccccc2[C@H](c2ccc(Cl)c(Cl)c2)C1 (single isomer, unassigned) [Compound 45] | 876 nM | – | 174 nM | 53 nM | – | –
CC(N)C1=Cc2ccccc2[C@H](c2ccc(Cl)c(Cl)c2)C1 (single isomer, unassigned) [Compound 46] | 50 nM | – | 1660 nM | 580 nM | – | –
CNC(C)C1=Cc2ccccc2[C@H](c2ccc(Cl)c(Cl)c2)C1 (single isomer, unassigned) [Compound 47] | 44 nM | 1180 nM | 1140 nM | – | – | –
CC(N)[C@@H]1Cc2ccccc2[C@H](c2ccc(Cl)c(Cl)c2)C1 (single isomer, unassigned) [Compound 52] | 8 nM | – | 622 nM | 122 nM | – | –
CC([C@@H]1Cc2ccccc2[C@H](c2ccc(Cl)c(Cl)c2)C1)N(C)C (single isomer, unassigned) [Compound 53] | 58 nM | 399 nM | 495 nM | – | – | –
CC([C@@H]1Cc2ccccc2[C@H](c2ccc(Cl)c(Cl)c2)C1)N(C)C (single isomer, unassigned) [Compound 54] | 815 nM | 1700 nM | 1900 nM | – | – | –
CC1C[C@@H](c2ccc(Cl)c(Cl)c2)c2ccccc2/C1=N\O (single isomer, unassigned) [Compound 57] | 3180 nM | 3890 nM | 997 nM | – | – | –
CC1C[C@@H](c2ccc(Cl)c(Cl)c2)c2ccccc2/C1=N\O (single isomer, unassigned) [Compound 58] | 1700 nM | 2840 nM | 436 nM | – | – | –
Clc1ccc([C@@]23CNC[C@@H]2C3)cc1Cl (single isomer, unassigned) [DOV 21,947, (+)-1-(3,4-dichlorophenyl)-3-azabicyclo[3.1.0]hexane] | – | – | – | – | dose-dependent reduction in immobility | significantly greater affinity
CN[C@H]1Cc2ccc(OC)cc2[C@@H](c2ccc(Cl)c(Cl)c2)C1 (stereo in doubt) [Compound 32a.3, 4-(3,4-dichlorophenyl)-6-methoxy-N-methyl-1,2,3,4-tetrahydronaphthalen-2-amine] | 4380 nM | 1050 nM | 1500 nM | – | – | –
CN[C@H]1Cc2cc(OC)ccc2[C@@H](c2ccc(Cl)c(Cl)c2)C1 (stereo in doubt) [Compound 32c.3, 4-(3,4-dichlorophenyl)-7-methoxy-N-methyl-1,2,3,4-tetrahydronaphthalen-2-amine] | 105 nM | 198 nM | 92 nM | – | – | –
CC(C1=Cc2ccccc2[C@H](c2ccc(Cl)c(Cl)c2)C1)N(C)C (stereo partly drawn) [Compound 48, 1-((S)-4-(3,4-dichlorophenyl)-3,4-dihydronaphthalen-2-yl)-N,N-dimethylethanamine] | 134 nM | 2720 nM | 2440 nM | – | – | –
CC(N)[C@@H]1Cc2ccccc2[C@H](c2ccc(Cl)c(Cl)c2)C1 (stereo partly drawn) [Compound 51, 1-((2S,4S)-4-(3,4-dichlorophenyl)-1,2,3,4-tetrahydronaphthalen-2-yl)ethanamine] | 2 nM | – | 30 nM | 12 nM | – | –
CC1(C)C[C@@H](c2ccc(Cl)c(Cl)c2)c2ccccc2C1N (stereo partly drawn) [Compound 59, (4S)-4-(3,4-dichlorophenyl)-2,2-dimethyl-1,2,3,4-tetrahydronaphthalen-1-amine] | 5500 nM | > 10000 nM | 1080 nM | – | – | –

— US8053603B2, “Tetralone-based monoamine reuptake inhibitors” (Sunovion Pharmaceuticals Inc., priority 2006, dated 2011)
